The text below walks through data of patent publication US20260193264A1, “BENZOYPARAZINE PYRAZINES AND THEIR USES” (FOGHORN THERAPEUTICS INC., priority 2022, published 2026).

The target in assay [1] is T1, HiBiT-BRM fusion protein in stable HeLa cell line (Homo sapiens, UniProt P51531).
T1 construct: expressed in transfected cells
The experiment in a line: HiBiT-BRM cell-based degradation assay (Nano-Glo HiBiT Lytic Detection, 24 h). The conditions noted are these: HeLa HiBiT-BRM cells; for DC50: read-out: BRM HiBit Degradation IC50; for BRM HiBit Degradation Maximum (%): top dose 30 μM. Further details: DC50: scale not given here. The essentials: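 HiBiT-tagged BRM levels in a stable HeLa line are measured after one day of compound treatment (up to 30 μM final, duplicate 10-point curves) by adding LgBiT lytic reagent and reading bioluminescence; values are expressed relative to vehicle and a 2 μM degrader control.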
On the technique in general: The HiBiT peptide binds its large partner to form an active luciferase.

Assay [2] has as its target T2, HiBit-BRG1 fusion protein in stable HeLa cell line expressing HiBit-BRG1 and LgBit (Homo sapiens, UniProt P51532).
T2 construct: expressed in transfected cells
The experiment in a line: HiBiT-BRG1 cell-based degradation assay (Nano-Glo HiBiT, 24 h). The conditions noted are these: HeLa HiBit-BRG1/LgBit cells; for DC50: read-out: BRMG1 HiBit Degradation IC50; for Dmax: top dose 30 μM, read-out: BRG1 HiBit Degradation Maximum (%). The procedure, abridged:
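Degradation calculated from NanoBiT luminescence relative to DMSO-treated cells (high) and cells given 2 μM known BRM/BRG1 degrader (low). HeLa cells stably expressing HiBiT-BRG1 plus LgBiT were exposed to compound for 24 h before lytic HiBiT detection.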

Structures are written as SMILES. Read-outs that look alike come from different tables or passages of the source.

T1 sequence (P51531 whole entry, the tested form may be a part): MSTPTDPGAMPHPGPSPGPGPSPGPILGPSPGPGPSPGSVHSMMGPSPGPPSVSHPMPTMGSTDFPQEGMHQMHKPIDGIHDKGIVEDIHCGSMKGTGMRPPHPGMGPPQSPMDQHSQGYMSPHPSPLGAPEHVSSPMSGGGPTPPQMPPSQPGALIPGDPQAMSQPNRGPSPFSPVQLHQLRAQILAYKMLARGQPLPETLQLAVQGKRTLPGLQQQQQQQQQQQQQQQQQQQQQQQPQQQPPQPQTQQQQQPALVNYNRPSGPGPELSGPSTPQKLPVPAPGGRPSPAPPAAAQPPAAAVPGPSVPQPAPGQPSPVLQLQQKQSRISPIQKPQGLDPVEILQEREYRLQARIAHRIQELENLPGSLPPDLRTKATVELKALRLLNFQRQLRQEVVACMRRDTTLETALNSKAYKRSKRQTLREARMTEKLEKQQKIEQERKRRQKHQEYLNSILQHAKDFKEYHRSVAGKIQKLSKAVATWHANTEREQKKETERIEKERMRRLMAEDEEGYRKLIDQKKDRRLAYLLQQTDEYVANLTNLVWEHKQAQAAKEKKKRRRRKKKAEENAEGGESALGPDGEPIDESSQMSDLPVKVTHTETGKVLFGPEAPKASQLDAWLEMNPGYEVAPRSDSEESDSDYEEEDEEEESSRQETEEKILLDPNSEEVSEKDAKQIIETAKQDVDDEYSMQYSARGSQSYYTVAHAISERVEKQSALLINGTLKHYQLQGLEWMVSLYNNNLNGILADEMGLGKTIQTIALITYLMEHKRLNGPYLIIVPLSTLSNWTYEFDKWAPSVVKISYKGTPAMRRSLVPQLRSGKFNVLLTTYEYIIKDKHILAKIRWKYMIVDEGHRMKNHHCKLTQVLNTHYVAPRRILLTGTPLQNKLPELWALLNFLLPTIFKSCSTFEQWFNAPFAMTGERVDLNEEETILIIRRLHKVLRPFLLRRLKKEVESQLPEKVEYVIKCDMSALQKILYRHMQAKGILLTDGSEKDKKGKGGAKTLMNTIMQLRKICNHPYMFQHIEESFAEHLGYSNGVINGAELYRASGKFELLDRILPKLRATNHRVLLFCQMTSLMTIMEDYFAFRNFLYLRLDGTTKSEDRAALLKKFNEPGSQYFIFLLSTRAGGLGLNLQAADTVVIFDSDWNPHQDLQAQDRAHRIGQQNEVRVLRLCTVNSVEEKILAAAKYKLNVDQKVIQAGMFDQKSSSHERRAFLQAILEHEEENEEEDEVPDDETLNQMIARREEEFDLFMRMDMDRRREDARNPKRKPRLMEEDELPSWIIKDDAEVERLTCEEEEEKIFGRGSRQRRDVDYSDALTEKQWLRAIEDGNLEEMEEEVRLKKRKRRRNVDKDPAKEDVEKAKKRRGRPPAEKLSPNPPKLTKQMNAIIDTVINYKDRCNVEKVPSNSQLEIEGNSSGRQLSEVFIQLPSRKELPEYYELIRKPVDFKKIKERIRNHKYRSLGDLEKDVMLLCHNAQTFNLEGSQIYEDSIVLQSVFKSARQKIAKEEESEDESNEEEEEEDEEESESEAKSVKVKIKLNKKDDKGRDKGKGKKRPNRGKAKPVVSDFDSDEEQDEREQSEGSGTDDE
T2 sequence (P51532 whole entry, the tested form may be a part): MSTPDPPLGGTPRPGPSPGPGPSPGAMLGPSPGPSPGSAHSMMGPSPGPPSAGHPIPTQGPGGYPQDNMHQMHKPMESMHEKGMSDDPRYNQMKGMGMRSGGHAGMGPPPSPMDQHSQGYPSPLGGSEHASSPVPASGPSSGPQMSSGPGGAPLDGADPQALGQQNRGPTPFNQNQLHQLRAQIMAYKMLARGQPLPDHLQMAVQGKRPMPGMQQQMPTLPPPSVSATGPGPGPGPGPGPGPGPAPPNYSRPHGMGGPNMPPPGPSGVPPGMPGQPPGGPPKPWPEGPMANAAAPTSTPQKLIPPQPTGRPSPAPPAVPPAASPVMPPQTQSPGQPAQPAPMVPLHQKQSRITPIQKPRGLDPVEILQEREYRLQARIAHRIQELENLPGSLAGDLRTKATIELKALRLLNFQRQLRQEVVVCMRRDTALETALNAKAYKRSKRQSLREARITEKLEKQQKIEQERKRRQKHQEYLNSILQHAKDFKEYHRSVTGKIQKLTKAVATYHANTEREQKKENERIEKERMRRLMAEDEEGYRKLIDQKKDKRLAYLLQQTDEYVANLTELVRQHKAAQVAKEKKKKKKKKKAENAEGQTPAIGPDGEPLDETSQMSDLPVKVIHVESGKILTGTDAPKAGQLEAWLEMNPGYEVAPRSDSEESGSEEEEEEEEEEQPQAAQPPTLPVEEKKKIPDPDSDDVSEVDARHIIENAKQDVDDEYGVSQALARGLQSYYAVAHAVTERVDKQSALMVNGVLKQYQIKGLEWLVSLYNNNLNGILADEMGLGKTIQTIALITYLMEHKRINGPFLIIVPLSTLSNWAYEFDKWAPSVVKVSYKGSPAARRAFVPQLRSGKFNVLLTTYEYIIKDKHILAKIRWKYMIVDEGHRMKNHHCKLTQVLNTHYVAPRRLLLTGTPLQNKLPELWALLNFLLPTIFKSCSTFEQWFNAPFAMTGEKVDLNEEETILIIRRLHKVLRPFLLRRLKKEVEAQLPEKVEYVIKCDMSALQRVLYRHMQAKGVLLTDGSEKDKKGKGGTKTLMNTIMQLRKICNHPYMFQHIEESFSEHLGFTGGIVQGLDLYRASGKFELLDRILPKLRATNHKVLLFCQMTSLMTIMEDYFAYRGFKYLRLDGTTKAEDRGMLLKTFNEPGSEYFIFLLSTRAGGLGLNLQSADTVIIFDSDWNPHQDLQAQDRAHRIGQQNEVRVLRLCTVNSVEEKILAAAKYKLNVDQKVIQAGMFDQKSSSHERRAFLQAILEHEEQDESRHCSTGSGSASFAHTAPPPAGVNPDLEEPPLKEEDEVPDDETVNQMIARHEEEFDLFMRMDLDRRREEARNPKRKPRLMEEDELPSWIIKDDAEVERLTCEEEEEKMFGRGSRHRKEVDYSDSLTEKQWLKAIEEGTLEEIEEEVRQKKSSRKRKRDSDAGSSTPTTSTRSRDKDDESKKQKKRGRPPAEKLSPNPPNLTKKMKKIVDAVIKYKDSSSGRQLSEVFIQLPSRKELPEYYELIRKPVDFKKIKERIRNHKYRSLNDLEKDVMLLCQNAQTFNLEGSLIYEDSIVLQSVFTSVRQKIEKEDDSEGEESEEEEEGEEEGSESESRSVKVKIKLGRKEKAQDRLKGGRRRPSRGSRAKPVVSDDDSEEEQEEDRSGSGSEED

With `COc1cc2nnc(-c3ccccc3O)cc2cc1C1CN(c2ncc(-c3cc([C@H](C(=O)N4C[C@H](O)C[C@H]4C(=O)N[C@@H](C)c4ccc(-c5scnc5C)cc4)C(C)C)on3)cn2)C1` [Compound 24], in assay [1], the DC50 is below 10 nM and the “BRM HiBit Degradation Maximum (%)” value is “A (“A” indicates maximum degradation ≥75%)”. For the same compound, in assay [2], the DC50 was below 10 nM and the Dmax is above 75%.

For the compound `Cc1ncsc1-c1ccc([C@H](C)NC(=O)[C@@H]2C[C@@H](O)CN2C(=O)[C@H](c2cc(N3CCC4(CC3)CC(c3ccc5cc(-c6ccccc6O)nnc5c3)C4)no2)C(C)C)cc1` [Compound 25], in assay [1], the DC50 is above 100 nM and the “BRM HiBit Degradation Maximum (%)” value is “B (“B” indicates maximum degradation ≥50%)”. Further, in assay [2], the Dmax is below 50%.

`Cc1ncsc1-c1ccc([C@H](C)NC(=O)[C@@H]2C[C@@H](O)CN2C(=O)[C@@H](c2cc(N3CCC4(CC3)CC(c3ccc5cc(-c6ccccc6O)nnc5c3)C4)no2)C(C)C)cc1` [Compound 26]: in assay [1], the DC50 was below 10 nM and the “BRM HiBit Degradation Maximum (%)” value was “A (“A” indicates maximum degradation ≥75%)”. Further, in assay [2], the DC50 was above 10 nM and the Dmax was above 75%.

Consider `Cc1ncsc1-c1ccc([C@H](C)NC(=O)[C@@H]2C[C@@H](O)CN2C(=O)[C@H](c2cc(-c3cnc(N4CC(c5cc(F)c6cc(-c7ccccc7O)nnc6c5)C4)nc3)no2)C(C)C)cc1` [Compound 27], for which, in assay [1], the DC50 was above 100 nM and the “BRM HiBit Degradation Maximum (%)” value is listed as “A (“A” indicates maximum degradation ≥75%)”. Besides, the Dmax in assay [2] was below 50%.

For `Cc1ncsc1-c1ccc([C@H](C)NC(=O)[C@@H]2C[C@@H](O)CN2C(=O)[C@@H](c2cc(-c3cnc(N4CC(c5cc(F)c6cc(-c7ccccc7O)nnc6c5)C4)nc3)no2)C(C)C)cc1` [Compound 28], in assay [1], the DC50 is above 10 nM and the “BRM HiBit Degradation Maximum (%)” value is given as “A (“A” indicates maximum degradation ≥75%)”. Further, in assay [2], the Dmax was below 50%.

In the case of `Cc1ncsc1-c1ccc([C@H](C)NC(=O)[C@@H]2C[C@@H](O)CN2C(=O)[C@H](c2cc(-c3cnc(N4CC(c5cc6cc(-c7ccccc7O)nnc6cc5Cl)C4)nc3)no2)C(C)C)cc1` [Compound 29], in assay [1], the DC50 was above 100 nM and the “BRM HiBit Degradation Maximum (%)” value is “A (“A” indicates maximum degradation ≥75%)”. Moreover, the Dmax in assay [2] was below 50%.

Regarding `Cc1ncsc1-c1ccc([C@H](C)NC(=O)[C@@H]2C[C@@H](O)CN2C(=O)[C@@H](c2cc(-c3cnc(N4CC(c5cc6cc(-c7ccccc7O)nnc6cc5Cl)C4)nc3)no2)C(C)C)cc1` [Compound 30], in assay [1], the DC50 is below 10 nM and the “BRM HiBit Degradation Maximum (%)” value is “A (“A” indicates maximum degradation ≥75%)”. In addition, in assay [2], the DC50 is above 10 nM and the Dmax was above 75%.

For `Cc1ncsc1-c1ccc([C@H](C)NC(=O)[C@@H]2C[C@@H](O)CN2C(=O)[C@H](c2cc(-c3cnc(N4CC(c5cc6nnc(-c7ccccc7O)cc6cc5Cl)C4)nc3)no2)C(C)C)cc1` [Compound 31], in assay [1] (given as a number), the DC50 is 243 nM. Besides, in assay [1], the “BRM HiBit Degradation Maximum (%)” value was “A (“A” indicates maximum degradation ≥75%)”. In assay [2], the Dmax was below 50%.

As for `Cc1ncsc1-c1ccc([C@H](C)NC(=O)[C@@H]2C[C@@H](O)CN2C(=O)[C@@H](c2cc(-c3cnc(N4CC(c5cc6nnc(-c7ccccc7O)cc6cc5Cl)C4)nc3)no2)C(C)C)cc1` [Compound 32], in assay [1], the DC50 is above 10 nM and the “BRM HiBit Degradation Maximum (%)” value was “B (“B” indicates maximum degradation ≥50%)”. The Dmax in assay [2] is below 50%.

For the compound `Cc1ncsc1-c1ccc([C@H](C)NC(=O)[C@@H]2C[C@@H](O)CN2C(=O)[C@H](c2cc(N3CC4(CC(c5ccc6cc(-c7ccccc7O)nnc6c5)C4)C3)no2)C(C)C)cc1` [Compound 33], in assay [1], the DC50 was above 100 nM and the “BRM HiBit Degradation Maximum (%)” value is given as “A (“A” indicates maximum degradation ≥75%)”. Moreover, the Dmax in assay [2] was below 50%.
